Test results from PubChem BioAssay AID1259407 (Chemical Carcinogenesis Research Information System (CCRIS), 2018).
The source made the active and inactive calls. No rule for the calls is given here.

System: CCRIS mutagenicity, Ames/micronucleus/aberration tests
Test: CCRIS mutagenicity studies
[1] = Test System: AMES SALMONELLA TYPHIMURIUM, Strain/Indicator: TA98, Metabolic Activation: NONE, Method: STANDARD PLATE
[2] = Test System: AMES SALMONELLA TYPHIMURIUM, Strain/Indicator: TA100, Metabolic Activation: NONE, Method: STANDARD PLATE
[3] = Test System: AMES SALMONELLA TYPHIMURIUM, Strain/Indicator: TA98, Metabolic Activation: NONE, Method: PREINCUBATION
[4] = Test System: AMES SALMONELLA TYPHIMURIUM, Strain/Indicator: TA1535, Metabolic Activation: NONE, Method: PREINCUBATION
[5] = Test System: AMES SALMONELLA TYPHIMURIUM, Strain/Indicator: TA1537, Metabolic Activation: NONE, Method: PREINCUBATION

CO[C@]1(CC[C@@H](C)CO[C@@H]2O[C@H](CO)[C@@H](O)[C@H](O)[C@H]2O)O[C@H]2C[C@H]3[C@@H]4CC=C5C[C@@H](O[C@@H]6O[C@H](CO)[C@@H](O[C@@H]7O[C@@H](C)[C@H](O)[C@@H](O)[C@H]7O)[C@H](O)C6O[C@@H]6O[C@@H](C)[C@H](O)[C@@H](O)[C@H]6O)CC[C@]5(C)[C@H]4CC[C@]3(C)[C@H]2[C@@H]1C (some centres undefined)
mutagenic call [1]: inactive; negative
mutagenic call (Test System: AMES SALMONELLA TYPHIMURIUM, Strain/Indicator: TA98, Metabolic Activation: RAT, LIVER, S-9, PHENOBARBITAL, Method: STANDARD PLATE): inactive; negative
mutagenic call [2]: inactive; negative
mutagenic call (Test System: AMES SALMONELLA TYPHIMURIUM, Strain/Indicator: TA100, Metabolic Activation: RAT, LIVER, S-9, PHENOBARBITAL, Method: STANDARD PLATE): inactive; negative

C[C@]12CC[C@@H]3c4ccc(O)cc4C[C@@H](CCCCCCCCCS(=O)CCCC(F)(F)C(F)(F)F)[C@H]3[C@@H]1CC[C@@H]2O (some centres undefined)
mutagenic call (Test System: CHINESE HAMSTER V-79, Strain/Indicator: V-79 (HPRT)/6-THIOGUANINE, Metabolic Activation: NONE, Method: SUSPENSION/PLATE): active; positive

N/C(=N\O)c1ccccc1
mutagenic call (Test System: AMES SALMONELLA TYPHIMURIUM, Strain/Indicator: TA98, Metabolic Activation: CO631 CELLS, Method: PREINCUBATION): inactive; negative
mutagenic call [3]: inactive; negative
mutagenic call (Test System: AMES SALMONELLA TYPHIMURIUM, Strain/Indicator: TA98, Metabolic Activation: RABBIT, LIVER, S-9, Method: PREINCUBATION): active; positive
mutagenic call (Test System: AMES SALMONELLA TYPHIMURIUM, Strain/Indicator: TA98, Metabolic Activation: RAT HEPATOCYTES, Method: PREINCUBATION): inactive; negative
mutagenic call (Test System: AMES SALMONELLA TYPHIMURIUM, Strain/Indicator: TA98, Metabolic Activation: RAT, LIVER, S-9, AROCLOR 1254, ATP, Method: PREINCUBATION): inactive; negative
mutagenic call (Test System: AMES SALMONELLA TYPHIMURIUM, Strain/Indicator: TA98, Metabolic Activation: RAT, LIVER, S-9, AROCLOR 1254, Method: PREINCUBATION): inactive; negative
mutagenic call (Test System: AMES SALMONELLA TYPHIMURIUM, Strain/Indicator: TA100, Metabolic Activation: RABBIT, LIVER, S-9, Method: PREINCUBATION): inactive; negative
mutagenic call (Test System: AMES SALMONELLA TYPHIMURIUM, Strain/Indicator: TA100, Metabolic Activation: RAT HEPATOCYTES, Method: PREINCUBATION): inactive; negative
mutagenic call (Test System: AMES SALMONELLA TYPHIMURIUM, Strain/Indicator: TA100, Metabolic Activation: RAT, LIVER, S-9, AROCLOR 1254, ATP, Method: PREINCUBATION): inactive; negative
mutagenic call (Test System: AMES SALMONELLA TYPHIMURIUM, Strain/Indicator: TA100, Metabolic Activation: RAT, LIVER, S-9, AROCLOR 1254, Method: PREINCUBATION): inactive; negative

CC1=C(C(=O)OC(C)C)C(c2cccc([N+](=O)[O-])c2)C(C(=O)OC2CN(C(c3ccccc3)c3ccccc3)C2)=C(N)N1 (centres undefined)
mutagenic call [1]: inactive; negative
mutagenic call (Test System: AMES SALMONELLA TYPHIMURIUM, Strain/Indicator: TA98, Metabolic Activation: RAT LIVER S-9, Method: STANDARD PLATE): inactive; negative
mutagenic call [2]: inactive; negative
mutagenic call (Test System: AMES SALMONELLA TYPHIMURIUM, Strain/Indicator: TA100, Metabolic Activation: RAT LIVER S-9, Method: STANDARD PLATE): inactive; negative
mutagenic call (Test System: AMES SALMONELLA TYPHIMURIUM, Strain/Indicator: TA1535, Metabolic Activation: NONE, Method: STANDARD PLATE): inactive; negative
mutagenic call (Test System: AMES SALMONELLA TYPHIMURIUM, Strain/Indicator: TA1535, Metabolic Activation: RAT LIVER S-9, Method: STANDARD PLATE): inactive; negative
mutagenic call (Test System: AMES SALMONELLA TYPHIMURIUM, Strain/Indicator: TA1537, Metabolic Activation: NONE, Method: STANDARD PLATE): inactive; negative
mutagenic call (Test System: AMES SALMONELLA TYPHIMURIUM, Strain/Indicator: TA1537, Metabolic Activation: RAT LIVER S-9, Method: STANDARD PLATE): inactive; negative
mutagenic call (Test System: E.COLI, Strain/Indicator: WP2 UVRA, Metabolic Activation: NONE, Method: STANDARD PLATE): inactive; negative
mutagenic call (Test System: E.COLI, Strain/Indicator: WP2 UVRA, Metabolic Activation: RAT LIVER S-9, Method: STANDARD PLATE): inactive; negative

CC(C)(Br)C(Br)COP(=O)(OCC(Br)C(C)(C)Br)OCC(Br)C(C)(C)Br (centres undefined)
mutagenic call (Test System: AMES SALMONELLA TYPHIMURIUM, Strain/Indicator: TA100, Metabolic Activation: RAT, LIVER, MICROSOMES, PHENOBARBITAL, Method: PREINCUBATION): inactive; negative
mutagenic call (Test System: AMES SALMONELLA TYPHIMURIUM, Strain/Indicator: TA100, Metabolic Activation: RAT, LIVER, MICROSOMES, Method: PREINCUBATION): inactive; negative

Nc1nc2c(ncn2CCC(CO)CO)c(=O)[nH]1
mutagenic call (End Point: IN VITRO CHROMOSOMAL ABERRATIONS, Test System: CHO CELLS (CHO-HSVTK), Metabolic Activation: NONE): active; positive (pulverized chromosome and condensation defects); concentration chosen

C=CC[N+](C)(C)CC=C
mutagenic call [3]: inactive; negative
mutagenic call (Test System: AMES SALMONELLA TYPHIMURIUM, Strain/Indicator: TA98, Metabolic Activation: RAT LIVER S-9, PHENOBARBITAL AND BETA-NAPHTHOFLAVONE, Method: PREINCUBATION): inactive; negative
mutagenic call (Test System: AMES SALMONELLA TYPHIMURIUM, Strain/Indicator: TA100, Metabolic Activation: NONE, Method: PREINCUBATION): inactive; negative
mutagenic call (Test System: AMES SALMONELLA TYPHIMURIUM, Strain/Indicator: TA100, Metabolic Activation: RAT LIVER S-9, PHENOBARBITAL AND BETA-NAPHTHOFLAVONE, Method: PREINCUBATION): inactive; negative
mutagenic call [4]: inactive; negative
mutagenic call (Test System: AMES SALMONELLA TYPHIMURIUM, Strain/Indicator: TA1535, Metabolic Activation: RAT LIVER S-9, PHENOBARBITAL AND BETA-NAPHTHOFLAVONE, Method: PREINCUBATION): inactive; negative
mutagenic call [5]: inactive; negative
mutagenic call (Test System: AMES SALMONELLA TYPHIMURIUM, Strain/Indicator: TA1537, Metabolic Activation: RAT LIVER S-9, PHENOBARBITAL AND BETA-NAPHTHOFLAVONE, Method: PREINCUBATION): inactive; negative
mutagenic call (Test System: E.COLI, Strain/Indicator: WP2UVRA/PKM101, Metabolic Activation: NONE, Method: PREINCUBATION): inactive; negative
mutagenic call (Test System: E.COLI, Strain/Indicator: WP2UVRA/PKM101, Metabolic Activation: RAT LIVER S-9, PHENOBARBITAL AND BETA-NAPHTHOFLAVONE, Method: PREINCUBATION): inactive; negative

O=[N+]([O-])c1ccc2c(c1)c([N+](=O)[O-])cc1ccccc12
mutagenic call (Test System: AMES SALMONELLA TYPHIMURIUM, Strain/Indicator: TA98(1,8-DNP6), Metabolic Activation: NONE, Method: STANDARD PLATE): active; positive
mutagenic call (Test System: AMES SALMONELLA TYPHIMURIUM, Strain/Indicator: TA98(NR), Metabolic Activation: NONE, Method: STANDARD PLATE): active; positive
mutagenic call [1]: active; positive
mutagenic call [2]: active; positive
mutagenic call (Test System: AMES SALMONELLA TYPHIMURIUM, Strain/Indicator: YG1021, Metabolic Activation: NONE, Method: STANDARD PLATE): active; positive
mutagenic call (Test System: AMES SALMONELLA TYPHIMURIUM, Strain/Indicator: YG1024, Metabolic Activation: NONE, Method: STANDARD PLATE): active; positive
mutagenic call (Test System: AMES SALMONELLA TYPHIMURIUM, Strain/Indicator: YG1026, Metabolic Activation: NONE, Method: STANDARD PLATE): active; positive
mutagenic call (Test System: AMES SALMONELLA TYPHIMURIUM, Strain/Indicator: YG1029, Metabolic Activation: NONE, Method: STANDARD PLATE): active; positive

CCOc1ccc([N+](=O)[O-])cc1
mutagenic call [3]: active; positive
mutagenic call (Test System: AMES SALMONELLA TYPHIMURIUM, Strain/Indicator: TA100(NR), Metabolic Activation: RAT, LIVER, S-9, PCB, Method: PREINCUBATION): inactive; negative
mutagenic call [4]: inactive; negative
mutagenic call [5]: inactive; negative
mutagenic call (Test System: AMES SALMONELLA TYPHIMURIUM, Strain/Indicator: TA1538, Metabolic Activation: NONE, Method: PREINCUBATION): inactive; negative
mutagenic call (Test System: AMES SALMONELLA TYPHIMURIUM, Strain/Indicator: YG1026, Metabolic Activation: NONE, Method: PREINCUBATION): active; positive
mutagenic call (Test System: AMES SALMONELLA TYPHIMURIUM, Strain/Indicator: YG1029, Metabolic Activation: NONE, Method: PREINCUBATION): active; positive
mutagenic call (Test System: AMES SALMONELLA TYPHIMURIUM, Strain/Indicator: YG1042, Metabolic Activation: NONE, Method: PREINCUBATION): active; positive
